# Patent US3943137A, “Acronycine derivatives” (University of Kansas Endowment Association, priority 1973, dated 1976)
# Where “and” joins values, the source holds several entries; their conditions need not be identical. Identical values can stand only once. Counter-ions that a name gives are not always drawn. Like-named read-outs stand apart in the source and are kept apart here.
# Key:
# Type in all cases: physicochemical
# [1] = Hydrolysis of acylacronycinium salts in aqueous solution (no complexing agent); conditions: for half-life: read-out: t1/2 (hydrolysis)
# [2] = Hydrolysis of acylacronycinium salts in presence of complexing agents; conditions: for k (hydrolysis): gentisic acid (0.05 M); for half-life at 100 µM: 10^-4 M drug, 25° C., pH 6.0, read-out: Apparent half-life, t1/2
# Description: In studying the kinetics of hydrolysis of the aforesaid quaternary acyl acronycinium salts to yield acronycine, it was determined that the increased solubility and the rapid rate of hydrolysis were such that said quaternary derivatives were eminently well suited for use as pro-drugs. Nevertheless, the facility with which hydrolysis occurred in water presented one problem of too rapid precipitation from solution as a consequence of the formation of the slightly soluble acronycine free base. In order to prevent any objectionable hydrolysis of the pro-drug in aqueous solution prior to administration, it was discovered that the hydrolytic rate thereof could be retarded by the formation of intermolecular complexes therewith. […] Moreover, since complexation is an equilibrium phenomenon, extensive complexation occurs in the relatively concentrated drug solution. However, upon dilution with aqueous media such as body fluids, the complex species dissociates, and the pro-drug is then rapidly hydrolyzed to the desired drug species, namely, the acronycine free base. Exemplary of the complexing agents which can be used in aqueous solutions of the acylacronycinium salts to retard the hydrolysis thereof are a wide variety of the organic acids and alkali metal salts thereof, preferably the cyclic and aromatic organic acids, and most preferably the hydroxy aromatic acids. Representative of same are gentisic acid, gamma-resorcylic acid, p-hydroxycinnamic acid, 2-furoic acid, m-hydroxycinnamic acid, 3,4-dimethylcinnamic acid and 3-methylgentisic acid, and the sodium and other salts thereof. A suitably stable and useful formulation of an acylacronycinium salt for use in the preparation of pharmaceutical solutions can be simply made by preparing a powder mixture of the desired acylacronycinium salt and a suitable complexing agent in such proportions and amounts that upon addition of an aqueous solvent, the resulting solution would be of a composition such that the hydrolysis of the acylacronycinium salt would be greatly retarded.
# Among the number of the hydroxy aromatic acids, particularly the hydroxy benzoic acids that have been utilized according to the invention, excellent results have been attained with the preferred 2,5-dihydroxy-benzoic acid (gentisic acid). […] Mathematical analysis of the results dictates describing this system by two equilibria; one to one complex and one to two complex formation (one drug and two ligand), with the 1:1 complex and the free drug hydrolyzing with half-lives of 120 and 23 minutes, respectively. The solid curve of the FIGURE of drawing illustrates the result of such model. Constants required for the t1/2 calculations were as follows:
# and the experimental conditions were:
# Use of suitable complexing agents in aqueous solutions of the acylacronycinium salts retarded the hydrolysis of such compounds. Some of the complexing agents used were the following: sodium gentisate, sodium gamma-resorcylate and sodium cinnamate. Table I reflects the effects of sodium gentisate concentration on the apparent rate of hydrolysis of acetylacronycinium perchlorate.
# Apparent half-line of acetylacronycinium perchlorate
# (10^-^4 M) as a function of sodium gentisate concentration
# in water at 25° C. pH = 6.0.
# Experimental: Twenty-five mg of acetylacronycinium perchlorate and 4.6 g of sodium gentisate were powdered, mixed and placed in a suitable vial and sealed. Just prior to use, 100 ml of water was added to the vial, and the solid material dissolved rapidly, yielding a solution which was about 10^^-3 M with respect to acetylacronycinium perchlorate and about 0.2 Molar with respect to sodium gentisate.
# Solubility = conditions: water; for solubility (qualitative): acetone, benzene
# [3] = phosphate buffer, pH 7.60, 25°C
# [4] = acetate buffer (25° C.), replicate runs
# [5] = phosphate buffer (25° C.), replicate runs
# [6] = phosphate buffer, 25° C., pH not given, three runs
compound,measurement,setting,value
"CCC(=O)Oc1c2ccccc2[n+](C)c2c3c(cc(OC)c12)OC(C)(C)C=C3 [propionylacronycinium perchlorate, Propionylacronycinium Perchlorate]",k (hydrolysis),"[1]; phosphate buffer, pH 7.50, 25°C",0.028 min⁻¹
same,half-life,"[1]; phosphate buffer, pH 7.5, phosphate buffer, pH 7.50, 25°C",0.407 h
same,k (hydrolysis),[1]; [3],0.046 min⁻¹ and 0.047 min⁻¹
same,t1/2 (hydrolysis),[1]; [3],0.243 h
same,half-life,"[1]; phosphate buffer, pH 7.6, phosphate buffer, pH 7.60, 25°C",0.248 h
same,half-life,"[2]; 0.05 m gentisic acid, pH 2.7, gentisic acid (0.05 M), pH 2.70, 25°C, read-out: t1/2 (hydrolysis)",1.71 h
same,half-life,"[2]; 0.05 m gentisic acid, pH 2.78, gentisic acid (0.05 M), pH 2.78, 25°C, read-out: t1/2 (hydrolysis)",1.44 h
same,k (hydrolysis),"[2]; pH 2.70, 25°C",0.0067 min⁻¹
same,k (hydrolysis),"[2]; pH 2.78, 25°C",0.008 min⁻¹
COc1cc2c(c3c1c(OC(C)=O)c1ccccc1[n+]3C)C=CC(C)(C)O2 [Acetylacronycinium Chloride],k (hydrolysis),"[1]; methanol/water (90/10), pH 0.28",0.0248 min⁻¹
same,half-life,"[1]; methanol/water (90/10), pH 0.28, methanol/water (90/10), pH 0.28",0.467 h
same,k (hydrolysis),"[1]; methanol/water (90/10), pH 1.28",0.025 min⁻¹
same,half-life,"[1]; methanol/water (90/10), pH 1.28, methanol/water (90/10), pH 1.28",0.462 h
"COc1cc2c(c3c1c(=O)c1ccccc1n3C)C=CC(C)(C)O2 [perchlorate salt, acronycinium perchlorate]",solubility (qualitative),Solubility,soluble in water and insoluble in acetone and benzene
COc1cc2c(c3c1c(OC(C)=O)c1ccccc1[n+]3C)C=CC(C)(C)O2 [Acetylacronycinium Sulfate],k (hydrolysis),[1]; [4],0.0262 min⁻¹ and 0.0254 min⁻¹
same,t1/2 (hydrolysis),[1]; [4],0.455 h
same,half-life,"[1]; acetate buffer, acetate buffer (25° C.), replicate runs",0.442 h
same,k (hydrolysis),[1]; [5],0.036 min⁻¹ and 0.0352 min⁻¹ and 0.0323 min⁻¹
same,t1/2 (hydrolysis),[1]; [5],0.328 h and 0.358 h
same,half-life,"[1]; phosphate buffer, phosphate buffer (25° C.), replicate runs",0.322 h
"COc1cc2c(c3c1c(OC(=O)C(C)(C)C)c1ccccc1[n+]3C)C=CC(C)(C)O2 [pivalylacronycinium perchlorate, Pivalylacronycinium Perchlorate]",k (hydrolysis),[1]; [6],0.043 min⁻¹ and 0.0387 min⁻¹ and 0.0289 min⁻¹
same,t1/2 (hydrolysis),[1]; [6],0.2985 h and 0.3997 h
same,half-life,[1]; [6],0.268 h
"COc1cc2c(c3c1c(OC(C)=O)c1ccccc1[n+]3C)C=CC(C)(C)O2 [acetylacronycinium perchlorate, Acetylacronycinium Perchlorate]",solubility (qualitative),Solubility,"insoluble in benzene, but soluble in water and acetone"
same,increase in solubility over the free base,Solubility,hundredfold increase in solubility
same,solubility,Solubility; read-out: Solubility,~0.25 mg/mL
same,solubility,Solubility; read-out: solubility in water,0.25 mg/mL
same,enthalpy of activation of hydrolysis,[1],about 20 kcal/mole
same,effect of dielectric constant on hydrolysis rate,[1]; increasing dielectric constant,greatly increased
same,"effect of ionic strength, pH, anion, ester group size on hydrolysis rate","[1]; ionic strength, pH (below 8-9), anion, ester group size",remarkably insensitive
same,"t1/2 and k of hydrolysis, 3,4-dihydroxycinnamic acid complex","[2]; 3,4-dihydroxycinnamic acid, pH 6.5, 25° C., 0.05 M phosphate buffer",roughly comparable to those generated with the sodium gentisate complex
same,"t1/2 and k of hydrolysis, cinnamic acid complex","[2]; cinnamic acid, pH 6.5, 25° C., 0.05 M phosphate buffer",roughly comparable to those generated with the sodium gentisate complex
same,"t1/2 and k of hydrolysis, gamma-resorcylic acid complex","[2]; gamma-resorcylic acid, pH 6.5, 25° C., 0.05 M phosphate buffer",roughly comparable to those generated with the sodium gentisate complex
same,t1/2 1:2 Complex,"[2]; model constant, sodium gentisate, μ = 1.0 M, 25.0°C, pH 6.5, 520 nm",.infin.
same,"t1/2 and k of hydrolysis, p-hydroxycinnamic acid complex","[2]; p-hydroxycinnamic acid, pH 6.5, 25° C., 0.05 M phosphate buffer",roughly comparable to those generated with the sodium gentisate complex
same,rate of hydrolysis with sodium gentisate,"[2]; sodium gentisate, FIGURE",greatly reduced
same,K1:1 (complexation constant),"[2]; sodium gentisate, one drug, one ligand, μ = 1.0 M, 25.0°C, pH 6.5, 520 nm, in M^-1 (unit assumed)","4,081"
same,k1:2 (complexation constant),"[2]; sodium gentisate, one drug, two ligand, μ = 1.0 M, 25.0°C, pH 6.5, 520 nm","80,000"
same,half-life at 1000 µM,"[2]; water, about 10^-3 M drug, about 0.2 Molar sodium gentisate, water, reconstituted powder mixture, read-out: apparent hydrolytic half-life (converted)",~9.5 h
same,half-life at 100 µM,"[2]; water, pH 6, sodium gentisate 0 M/l, water",0.383 h
same,half-life at 100 µM,"[2]; water, pH 6, sodium gentisate 0.1 M/l, water",5.83 h
same,half-life at 100 µM,"[2]; water, pH 6, sodium gentisate 0.2 M/l, water",9.63 h
same,half-life at 100 µM,"[2]; water, pH 6, sodium gentisate 1 × 10^-2 M/l, water",2.08 h
same,half-life at 100 µM,"[2]; water, pH 6, sodium gentisate 2 × 10^-2 M/l, water",2.6 h
same,half-life at 100 µM,"[2]; water, pH 6, sodium gentisate 2.5 × 10^-3 M/l, water",1.55 h
same,half-life at 100 µM,"[2]; water, pH 6, sodium gentisate 4 × 10^-2 M/l, water",3.45 h
same,half-life at 100 µM,"[2]; water, pH 6, sodium gentisate 5 × 10^-3 M/l, water",1.8 h
same,half-life at 100 µM,"[2]; water, pH 6, sodium gentisate 6 × 10^-2 M/l, water",4.33 h
same,half-life at 100 µM,"[2]; water, pH 6, sodium gentisate 8 × 10^-2 M/l, water",4.92 h
same,half-life,"[2]; water, pH 6.5, 1:1 complex with sodium gentisate, two-equilibria model, μ = 1.0 M, 25.0°C, pH 6.5, 520 nm, read-out: half-life of hydrolysis, 1:1 complex",2 h
same,half-life,"[2]; water, pH 6.5, model constant, sodium gentisate, μ = 1.0 M, 25.0°C, pH 6.5, 520 nm, read-out: t1/2 1:1 Complex",1.98 h
COc1cc2c(c3c1c(OC(=O)C(C)C)c1ccccc1[n+]3C)C=CC(C)(C)O2 [Isobutyrylacronycinium Perchlorate],k (hydrolysis),"[1]; phosphate buffer, pH 6.33, 24° C.",0.02057 min⁻¹
same,half-life,"[1]; phosphate buffer, pH 6.33, phosphate buffer, pH 6.33, 24° C.",0.562 h
COc1cc2c(c3c1c(OC(=O)C(F)(F)F)c1ccccc1[n+]3C)C=CC(C)(C)O2 [Trifluoroacetylacronycinium Perchlorate],reactivity with chloroform,[1]; chloroform,little reaction with chloroform (until water was added)
same,hydrolysis on storage,[1]; overnight in desiccator while still moist,Some hydrolysis occurred overnight
same,reactivity with water and methanol,[1]; water and methanol,reacted very quickly with water and methanol
